Reference: patent publication US20060040931A1, “Benzomorpholine derivatives” (Toray Industries, Inc., priority 2002, published 2006)
pIC50: −log10 of the molar value.

system: platelet aggregation; assay: Monkey platelet aggregation inhibitory test after oral administration (ex vivo, ADP-induced, PRP); type: in vivo; conditions: male crab-eating monkeys, blood before and 30, 60, 120, 180 min after administration, 10 μM ADP, FIG. 1
Procedure: Male crab-eating monkeys (4 to 6 kg) were retained in monkey chairs. After 30 minutes of acclimatization, the compound of Example 1-13 was orally administered to the monkeys using catheters (16 Fr).
Blood was collected via saphenous veins before, and 30, 60, 120 and 180 minutes after administration of drug solutions using a syringe that had previously contained a 3.8% sodium citrate solution in a volume that was one-tenth of that of collected blood.
The collected blood was centrifuged at 1000 rpm for 10 minutes. Upper portions of the resultants were collected as platelet rich plasma (PRP). PRP was apportioned into small test tubes, and 10 μM of ADP was added thereto to induce platelet aggregation. The degree of platelet aggregation was measured as a change in turbidity using an aggregometer (Hematracer 1, Nikobioscience).

Structure (SMILES)	inhibitory effect of platelet aggregation after oral administration
O=C(O)COc1cccc2c1OCCN2CCN(C(=O)c1ccccc1)c1ccc(Br)cc1 [Example 1-13]	strong inhibitory effect of platelet aggregation

system: human platelet aggregation; assay: Human platelet aggregation inhibitory test (ADP-induced, platelet rich plasma); type: cell-based; conditions: human PRP, 5 μM ADP, compound added 1 minute before ADP, turbidity (aggregometer), read-out: Platelet Aggregation Inhibitory Effect IC50
Procedure: Blood collected from human median cubital vein was centrifuged at 800 rpm for 10 minutes. Upper portion of the resultant was collected as platelet rich plasma (PRP). PRP was dispensed to small test tubes, and 5 μM of ADP was added thereto to induce platelet aggregation. The degree of platelet aggregation was measured as a change in turbidity using an aggregometer (Hematracer 1, Nikobioscience). Each compound was added 1 minute before ADP addition, and calculation was carried out using as an IC50 value a concentration that inhibits aggregation by 50%.

Structure (SMILES)	pIC50
Cc1ccc(C(=O)N(CCN2CCOc3c(OCC(=O)O)cccc32)c2ccc(C)cc2)cc1 [Example 1-28]	8.23
CSc1ccc(N(CCN2CCOc3c(OCC(=O)O)cccc32)C(=O)c2ccccc2)cc1 [Example 1-40]	7.85
Cc1ccc(C(=O)N(CCN2CCOc3c(OCC(=O)O)cccc32)c2ccc(Br)cc2)cc1 [Example 2-4]	7.57
O=C(O)COc1cccc2c1OCCN2CCN(C(=O)C1=CCCCC1)c1ccc(Br)cc1 [Example 2-27]	7.26

Continued, values first:

pIC50	Structure (SMILES)
8.28	Cc1ccc(N(CCN2CCOc3c(OCC(=O)O)cccc32)C(=O)c2ccccc2)cc1 [Example 1-16]
7.74	O=C(O)COc1cccc2c1OCCN2CCN(C(=O)c1ccccc1)c1ccc(Cl)cc1Cl [Example 1-49]
7.89	O=C(O)COc1cccc2c1OCCN2CCN(C(=O)c1ccccc1)c1ccc(Cl)cc1 [Example 1-14]
8.06	O=C(O)COc1cccc2c1OCCN2CCN(C(=O)c1ccccc1)c1ccc(Cl)cc1F [Example 1-63]
